Measured values: PMC12191924, “A new naphthalene-based fluorogenic substrate for cytochrome P450 4A11” (Biochemical Journal, 2025)
Entries after “also recorded” stand apart in the source; their conditions may differ.

Test system: 16 human microsomal P450 enzymes
Assay: Probing MONACRA metabolism by 16 recombinant human P450 enzymes
Format: biochemical
Settings: CYP1A2, 2A6, 2B6, 2C8, 2C9, 2C19, 2D6, 2E1, 2J2, 3A4, 3A5, 4A11, 4F2, 4F3A, 4F3B, 4F12
Description: Based on these observations, we developed a high-throughput automated assay applicable for studying SSPs of MONACRA metabolism by microsomal P450 enzymes. In this procedure, the incubation mixtures containing an NADPH-generating system and various substrate concentrations are placed in a multiwell plate and preincubated at 30°C in a thermostated shaker. The reaction is started by adding microsomal suspension to the final concentration of 0.3–1 mg/ml of microsomal protein or 0.02–0.1 µM of recombinant P450 enzymes in Supersomes. Following the incubation for 20 min at 30°C, the reaction is quenched by adding trichloroacetic acid (final concentration […]). After supplementing the wells with Na-glycine buffer (pH 10.4, final concentration 2.1 M), the plates are subjected to scanning the fluorescence spectra with excitation at 375 nm. This assay, which is described in detail in Materials and Methods, allows reliable detection of the concentrations of HONACRA as low as 0.1 µM.
We used the high-throughput activity assay described above to probe MONACRA metabolism by 16 human microsomal P450 enzymes, namely CYP1A2, CYP2A6, CYP2B6, CYP2C8, CYP2C9, CYP2C19, CYP2D6, CYP2E1, CYP2J2, CYP3A4, CYP3A5, CYP4A11, CYP4F2, CYP4F3A, CYP4F3B, and CYP4F12. […]

SMILES: COc1ccc2cc(C=CC(=O)O)ccc2c1 [MONACRA, 3-(6-methoxynaphthalen-2-yl)acrylic acid]
- activity in MONACRA demethylation among 16 recombinant human P450 enzymes: noticeable demethylation activity only with CYP4A11 and CYP1A2; also recorded: detectable activity in MONACRA demethylation was observed only with CYP4A11, CYP1A2, and CYP2C8
